Assay results as given in ChEMBL document CHEMBL1136977, “Carbonic anhydrase activators. Activation of the membrane-associated isoform XV with amino acids and amines” (Bioorg Med Chem Lett, 2009).

T1: Carbonic anhydrase 15 (Mus musculus) (UniProt Q99N23)
T1 sequence (whole entry): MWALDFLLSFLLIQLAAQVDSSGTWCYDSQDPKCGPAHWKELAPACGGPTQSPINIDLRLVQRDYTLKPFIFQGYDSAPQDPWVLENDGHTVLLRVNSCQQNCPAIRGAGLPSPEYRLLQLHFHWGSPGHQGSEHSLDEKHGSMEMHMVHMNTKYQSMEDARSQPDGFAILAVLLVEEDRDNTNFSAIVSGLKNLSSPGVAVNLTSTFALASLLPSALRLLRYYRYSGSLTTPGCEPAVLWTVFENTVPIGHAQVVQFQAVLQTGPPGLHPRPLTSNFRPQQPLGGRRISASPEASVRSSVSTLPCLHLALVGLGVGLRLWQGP

B1: Carbonic anhydrase 15 (Mus musculus), Q99N23 (protein)
chain: T1 sequence (whole entry)

Tests used:
[1] = biological target: Carbonic anhydrase 4 (Homo sapiens) (UniProt P22748); test: Activation of human recombinant carbonic anhydrase 4 lacking 20 amino terminal residues by stopped-flow CO2 hydrase method
Sequence of Carbonic anhydrase 4 (Homo sapiens) (P22748 whole entry, canonical isoform): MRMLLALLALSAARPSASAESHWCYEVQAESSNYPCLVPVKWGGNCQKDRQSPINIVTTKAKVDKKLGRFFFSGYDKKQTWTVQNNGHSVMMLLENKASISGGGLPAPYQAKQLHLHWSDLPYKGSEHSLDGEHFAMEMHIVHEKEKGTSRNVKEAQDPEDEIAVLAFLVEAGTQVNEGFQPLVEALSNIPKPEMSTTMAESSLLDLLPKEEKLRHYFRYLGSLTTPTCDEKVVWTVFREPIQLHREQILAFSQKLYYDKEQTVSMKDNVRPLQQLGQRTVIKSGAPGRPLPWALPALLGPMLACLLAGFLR

[2] = biological target: T1, Carbonic anhydrase 15 (Mus musculus); test: Activation of membrane associated mouse recombinant carbonic anhydrase 15 isoform by stopped-flow CO2 hydrase method
[3] = substrate: N[C@@H](Cc1c[nH]cn1)C(=O)O; test: (§1) Activity of membrane associated mouse recombinant carbonic anhydrase 15 isoform
[4] = substrate: N[C@H](Cc1c[nH]cn1)C(=O)O; test: as §1

Molecule	KA [1]	KA [2]	kcat [3]	kcat [4]
CNC[C@@H](O)c1ccc(O)c(O)c1	45 µM	6.9 µM		
N[C@@H](Cc1ccc(O)cc1)C(=O)O	25.1 µM	8.9 µM		
N[C@H](Cc1c[nH]c2ccccc12)C(=O)O	39.6 µM	8.7 µM		
N[C@@H](Cc1c[nH]cn1)C(=O)O	7.3 µM	32.1 µM		
NCCN1CCOCC1	1.3 µM	9.3 µM		
N[C@H](Cc1ccc(O)c(O)c1)C(=O)O	34.7 µM	4 µM		
NCCc1c[nH]c2ccc(O)cc12	3.14 µM	7.5 µM		
NCCN1CCNCC1	24.9 µM	10.4 µM		
N[C@@H](Cc1ccc(O)c(O)c1)C(=O)O	15.3 µM	6.5 µM		
NCc1ccccn1	5.19 µM	11.6 µM		
NCCc1ccccn1	7.13 µM	11.9 µM		
NCCc1ccc(O)c(O)c1	30.9 µM	7.1 µM		
Nc1ccc(C[C@H](N)C(=O)O)cc1	0.079 µM	16.3 µM		
N[C@@H](Cc1c[nH]c2ccccc12)C(=O)O	37.1 µM	13.5 µM		
NCCc1c[nH]cn1	25.3 µM	18.5 µM		
N[C@H](Cc1c[nH]cn1)C(=O)O	12.3 µM	14.1 µM		
B1			8.5 ×10⁵ /s	15 ×10⁵ /s
